In the assay the target is recombinant human CCR5 receptor (Homo sapiens, UniProt P51681). Kind of assay: in vitro radioligand binding assay (inhibition of binding of RANTES or MIP-1α), scintillation proximity. Particulars: membranes from Chinese hamster ovary cells expressing recombinant human CCR5; 0.1 nM iodinated RANTES or MIP-1α; average if tested more than once. Here is the method: The ability of compounds to inhibit the binding of RANTES or MIP-1α was assessed by an in vitro radioligand binding assay. Membranes were prepared from Chinese hamster ovary cells which expressed the recombinant human CCR5 receptor. These membranes were incubated with 0.1 nM iodinated RANTES or MIP-1α, scintillation proximity beads and various concentrations of the compounds of the invention in 96-well plates. The amount of iodinated RANTES or MIP-1α bound to the receptor was determined by scintillation counting.
Sequence of recombinant human CCR5 receptor (P51681 whole entry): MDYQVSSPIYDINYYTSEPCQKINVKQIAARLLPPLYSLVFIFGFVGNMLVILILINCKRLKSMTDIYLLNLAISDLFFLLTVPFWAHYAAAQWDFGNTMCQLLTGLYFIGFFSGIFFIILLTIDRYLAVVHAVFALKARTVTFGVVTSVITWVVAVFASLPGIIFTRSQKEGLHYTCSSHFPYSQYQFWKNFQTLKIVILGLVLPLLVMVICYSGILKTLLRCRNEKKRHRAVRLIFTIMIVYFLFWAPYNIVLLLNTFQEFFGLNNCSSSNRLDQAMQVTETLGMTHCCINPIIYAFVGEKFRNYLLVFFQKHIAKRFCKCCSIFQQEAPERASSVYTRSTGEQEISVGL
In Table IV the results are presented as Pic50 values.
For orientation: Scintillation proximity formats need no separation of bound from free tracer.
For `CCN(C(=O)Cc1ccc(S(C)(=O)=O)cc1)C1CCN(CC[C@H](NC(=O)C2CCC(F)(F)CC2)c2ccccc2)CC1` [Table 1 Compound 1, (S)—N-[1-(3-phenyl-3-[4,4-difluorocyclohexylcarboxyamino]propyl)-4-piperidinyl]-N-ethyl-4-methanesulfonylphenylacetamide], the Pic50 came to 8.95.

As to `CCN(C(=O)Cc1ccc(S(C)(=O)=O)cc1)C1CCN(CC[C@H](NC(=O)N2CCC(F)CC2)c2ccccc2)CC1` [Table 1 Compound 2, (S)—N-[1-(3-phenyl-3-[4-fluoropiperidin-1-ylcarboxyamino]propyl)-4-piperidinyl]-N-ethyl-4-methanesulfonylphenylacetamide], the Pic50 came to 7.68. With `CCN(C(=O)Cc1ccc(S(C)(=O)=O)cc1)C1CCN(CC[C@H](NC(=O)N2CC[C@@H](F)C2)c2ccccc2)CC1` [Table 1 Compound 3, (S)—N-[1-(3-Phenyl-3-[(R)-3-fluoropyrrolidin-1-ylcarboxyamino]propyl)-4-piperidinyl]-N-ethyl4-methanesulfonylphenylacetamide], the Pic50 was 7.76. Regarding `CCN(C(=O)Cc1ccc(S(C)(=O)=O)cc1)[C@@H]1C[C@H]2CC[C@@H](C1)N2CC[C@H](NC(=O)C1CCC(F)(F)CC1)c1ccccc1` [Table 2 Compound 1, (S)-4,4-difluoro-cyclohexanecarboxylic acid[3-(3-{ethyl-[2-(4-methanesulfonyl-phenyl)-acetyl]-amino}-8-aza-bicyclo[3.2.1]oct-8-yl-exo)-1-phenyl-propyl]-amide], the IC50 (usually the concentration at which inhibition is half-maximal) is 3.31 nM.

As to “(S)—N-[1-(3-[3,5-Difluorophenyl]-3-[3,3-difluorocyclobutylcarboxyamino]propyl)-4-piperidinyl]-N-ethyl-4-methanesulfonylphenylacetamide hydrochloride [Table 1 Compound 6]”, the Pic50 is listed as 8.65. As for “N-[1-((4S)-4-Phenyl-4-[3,3-difluorocyclobutylcarboxyamino]but-2-yl)-4-piperidinyl]-N-ethyl-4-methanesulfonylphenylacetamide hydrochloride [Table 3 Compound 8]”, the Pic50 stood at 9.15.

The values are drawn from patent US20050171353A1, “Piperidine or 8-aza-bicyclo[3.2.1]oct-3-yl derivatives useful as modulators of chemokine receptor activity (especially ccr5)” (priority 2002, published 2005).
